Five substances from patent publication US6995018B1, “Complex formed by N-linked glycoproteins (SIBLINGS)and Factor H” (The United States of America as represented by the …, priority 1999, dated 2006) can be followed below.

In assay [1] the test system is Murine erythroleukemia (MEL) cells. In words: Alternate complement mediated cell lysis assay, MEL cells with normal human serum. The assay is classed as cell-based. The following applies: for protection of MEL cells from complement-mediated lysis (cell viability): 10 μg/mL protein 10 min, normal human serum 1:10, 2 h, trypan blue and MTT; for effect of pretreatment on protective effect of rOPN: pretreatment followed by rOPN 10 μg/mL. As for the experimental part: MEL cells were rinsed three times with GVB-MgEGTA buffer, resuspended in GVB-MgEGTA at a density of 5×10^6 cells/mL, and incubated at 37° C. with different concentrations of normal human serum. After 2 hrs, cells were harvested for trypan blue exclusion assay. The thiazolium blue assay was carried out at identical serum dilutions and cell viability was determined by absorbance at 560 nm. Each data point represents the average of three measurements. The error bars represent the standard deviation of the mean (A). MEL cells in GVB-MgEGTA buffer were incubated with 10 μg/mL of either rBSP or rOPN for 10 minutes at 37° C. Normal human serum was then added at a dilution of 1:10 and the cells were returned to 37° C., incubated for 2 hours and cell viability was determined by trypan blue and thiazolyl blue (MTT) reduction assays (B). Data from 3–7 separate experiments, with treatment replicates in triplicate, was combined to yield mean values. Error bars represent the standard error of the mean. N=number of experiments combined.
MEL cells prepared as in FIG. 8 were treated with normal rBSP (10 μg/mL), rBSP whose RGD sequence had been mutated to KAE ([…]), and either GRGDS (SEQ ID NO: 10) peptide (400 μM) followed by rBSP or an αVβ3 antibody (1:4000) followed by rBSP for 10 minutes prior to the addition of normal human serum. The cells were then incubated for […] after which cell viability determined using the MTT assay (A). A cohort of MEL cells were pretreated with rOPN (10 μg/mL) alone, GRGDS (SEQ ID NO: 10) peptide followed by rOPN, the αVβ3 antibody followed by rOPN, or an anti-CD44 antibody (Chemicon, Co.) followed by rOPN, or hyaluronan (HA) followed by rOPN (B). Cells were then treated with normal human serum and viability assayed as in FIG. 8. […] The data represents the mean and standard error of the mean for three separate experiments. Statistical significance was determined by analysis of variance. Percent cell viability was determined using A560 absorbance values of various conditions and a control where no serum had been added (100% viable). The cross-hatched region represents that range of values observed when normal human serum (1:10) alone was added (maximal cell death).
The first model system employed was a murine erythroleukemia (MEL) cell line which when incubated with normal human serum can be readily assayed for alternate complement pathway (ACP)-mediated cell lysis (Varnet et al., Curr. Opin. Cell Biol., 8(5):724–730, 1996). Cell survival was measured by both trypan blue dye exclusion and by thiazolyl blue (MTT) reduction by living mitochondria. Titration with dilutions of normal human serum and time courses were carried out to define optimal incubation conditions. At 1:10 dilution, human serum totally lysed the MEL cells as measured by both assay systems (FIG. 8A).
Murine erytliroleukemia (MEL) cells (a gift of Dr. Marilyn Farquhar, Univ. CA San Diego.) grown in DMEM containing 10% fetal bovine serum and 4 mM glutamine were rinsed three times with gelatin veronal buffer with Mg2^+ and EGTA (GVB-MgEGTA, Sigma, St. Louis, Mo.). Cells were resuspended in GVB-MgEGTA at a density of 5×10^6 cells/mL and incubated at 37° C. with different concentrations of normal human serum diluted in GVB-MgEGTA. After 2 h, cells were harvested for trypan blue exclusion assay by removing a 50 μL aliquot, incubating for 15 minutes in 0.4% trypan blue, and counting viable cells under an inverted microscope. The thiazolium blue assay was carried out at identical serum dilutions by incubating a 50 μL aliquot of the cell suspension in an equal volume of 1 mg/mL thiazolyl blue (MTT) for 45 min. Cell viability was determined spectrophotometrically by absorbance at 560 nm. Cells in GVB-MgEGTA buffer were pre-incubated with 10 μg of either rBSP, rDMP1, or rOPN in 1 mL for 10 minutes at 37° C. […]

Assay [2] has as its target T1, purified human complement Factor H (Homo sapiens, UniProt P08603).
T1 construct: purchased Quidel Corporation (San Diego, Calif.)
Kind of assay: Steady state fluorescence titration of Factor H with SIBLINGS proteins. The assay is classed as binding. The conditions noted are these: fluorescence quenching at 347 nm, excitation 295 nm. An excerpt:
FIGS. 3A and 3B are graphs which show the result of a titration of Factor H with BSP.
The salient structural features of Factor H include 20 short consensus repeats (SCRs) that contain four cysteine residues forming two disulfide bonds per repeat. In addition, each SCR contains one conserved tryptophan residue per repeat and Factor H is known to interact with several sialic acid-containing proteins. Therefore, binding interactions between members of the SIBLINGS family of proteins and Factor H can be studied by steady state fluorescence.
Steady state fluorescence studies were accomplished by titrating purified human complement Factor H with rBSP, rOPN, and rDMP1 followed by excitation at 295 nm and monitoring emission between 300 and 450 nm. The emission profile of Factor H alone yields a peak at 347 nm. The addition of rBSP, rOPN, or rDMP1 in nm increments causes a relative fluorescent intensity quenching. Conversion of the fluorescent intensity titration into a binding curve by determining the fraction of binding sites occupied as the fractional change in fluorescence quenching at 347 nm yields a saturable binding curve. […] Given that normal serum concentration of Factor H is ^˜0.5 mg/mL it is probable that virtually all BSP, OPN, and DMP1 in serum will be complexed with Factor H.

For assay [3], the system named is MCF-7 breast cancer cells. Kind of assay: Alternate complement pathway cell lysis assay with guinea pig serum, MCF-7. The assay is classed as cell-based, human. The conditions noted are these: MCF-7, 10 μg/mL, guinea pig serum 1:5, trypan blue and MTT. As to the method:
(§1) Human cancer cell lines, MCF-7 (A) and U-266 (B) cells were rinsed three time with GVB-MgEGTA buffer and subsequently treated exactly as in the MEL cell complement-mediated cell lysis assay described above except complement active guinea pig serum (GPS) was substituted for human serum. Three different dilutions of GPS were assayed. For cultures pretreated with 10 μg/mL BSP or OPN, the dilution of GPS used was 1:5. Cell viability was determined by both trypan blue exclusion (solid bar) and MTT (open bar) assay. The bars represent the mean values of triplicate samples and the error bars are the standard deviation values.
(§2) Murine erytliroleukemia (MEL) cells (a gift of Dr. Marilyn Farquhar, Univ. CA San Diego.) grown in DMEM containing 10% fetal bovine serum and 4 mM glutamine were rinsed three times with gelatin veronal buffer with Mg2^+ and EGTA (GVB-MgEGTA, Sigma, St. Louis, Mo.). Cells were resuspended in GVB-MgEGTA at a density of 5×10^6 cells/mL and incubated at 37° C. with different concentrations of normal human serum diluted in GVB-MgEGTA. […] Cell viability was determined spectrophotometrically by absorbance at 560 nm. […] Normal human serum collected for good complement activity was then added at a dilution of 1:10 and the cells returned to 37° C. for 2 hours and cell viability was determined by trypan blue-exclusion and MTT assays. […]

Assay [4] concerns U-266 myeloma cells. In words: Alternate complement pathway cell lysis assay with guinea pig serum, U-266. The assay is classed as cell-based, human. The following applies: U-266, 10 μg/mL, guinea pig serum 1:5, trypan blue and MTT. As for the experimental part: as §1, §2

T1 sequence (P08603 19-1231): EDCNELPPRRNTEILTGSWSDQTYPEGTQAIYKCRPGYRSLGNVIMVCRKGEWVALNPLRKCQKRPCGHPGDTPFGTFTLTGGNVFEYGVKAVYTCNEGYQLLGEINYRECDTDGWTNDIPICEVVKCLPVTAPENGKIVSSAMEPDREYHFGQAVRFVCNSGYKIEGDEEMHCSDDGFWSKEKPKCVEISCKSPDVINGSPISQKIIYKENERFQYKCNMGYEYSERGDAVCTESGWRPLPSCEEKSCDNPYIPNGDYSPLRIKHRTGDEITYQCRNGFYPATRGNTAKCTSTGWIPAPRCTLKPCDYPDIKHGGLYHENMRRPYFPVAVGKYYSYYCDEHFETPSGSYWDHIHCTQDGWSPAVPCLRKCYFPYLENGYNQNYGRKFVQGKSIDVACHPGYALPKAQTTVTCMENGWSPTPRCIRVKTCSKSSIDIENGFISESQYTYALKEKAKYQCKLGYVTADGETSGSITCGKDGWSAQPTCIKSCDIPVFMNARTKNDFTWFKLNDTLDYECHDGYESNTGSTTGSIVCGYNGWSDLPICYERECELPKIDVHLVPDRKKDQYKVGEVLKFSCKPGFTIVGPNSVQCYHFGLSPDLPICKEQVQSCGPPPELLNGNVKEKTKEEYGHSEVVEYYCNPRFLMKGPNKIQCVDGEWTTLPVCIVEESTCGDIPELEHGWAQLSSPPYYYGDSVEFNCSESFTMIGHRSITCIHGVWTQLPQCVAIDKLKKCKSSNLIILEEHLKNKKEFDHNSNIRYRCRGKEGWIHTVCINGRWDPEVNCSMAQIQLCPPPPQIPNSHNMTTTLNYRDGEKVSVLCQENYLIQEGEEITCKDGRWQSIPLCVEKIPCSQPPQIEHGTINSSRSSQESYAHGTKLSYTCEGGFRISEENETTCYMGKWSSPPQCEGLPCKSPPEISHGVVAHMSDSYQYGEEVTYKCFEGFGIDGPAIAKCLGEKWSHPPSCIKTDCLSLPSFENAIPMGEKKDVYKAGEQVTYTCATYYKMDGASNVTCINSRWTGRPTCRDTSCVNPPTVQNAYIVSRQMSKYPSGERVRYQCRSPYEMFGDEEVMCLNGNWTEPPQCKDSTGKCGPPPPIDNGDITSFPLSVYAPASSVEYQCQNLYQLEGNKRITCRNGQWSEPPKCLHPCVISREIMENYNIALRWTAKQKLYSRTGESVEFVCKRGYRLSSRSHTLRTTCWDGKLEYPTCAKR

Consider “rOPN-Factor H: pre-formed complex of rOPN and Factor H”, for which, in assay [1], the “protection of MEL cells from complement-mediated lysis (cell viability)” value (shortened to “protection of MEL cells … (cell viability)”) is recorded as “abolished the protection”.
Turning to hyaluronan [reference compound], the “effect of pretreatment on protective effect of rOPN” value in assay [1] (MEL cells, MTT) is “reduced the protective effect”.
As to “rBSP-Factor H: pre-formed complex of rBSP and Factor H”, in assay [1], the “protection of MEL cells … (cell viability)” value was “abolished the protection”.
As to “OPN: osteopontin, SIBLINGS family member; recombinant from adenoviral construct”, in assay [2], the “binding constant with Factor H” value is “in the nM range”. The “dose relation of protection of MEL cells from alternate complement pathway-mediated lysis” value in assay [1] is “dose related responses”. For the same substance, the “protection of MEL cells … (cell viability)” value in assay [1] is reported as “protect”; in assay [1] (listed as recombinant OPN) it was “conferred protection”. Further, the “survival and protection from complement-mediated cell lysis” value in assay [3] was “enhanced survival and protection”; in assay [4] it was “enhanced survival and protection”.
As for “GRGDS: synthetic peptide used to compete with SIBLINGS proteins for integrin type binding (Calbiochem-NovaBiochem) [reference compound]”, in assay [1] (MEL cells, GRGDS 400 μM or αVβ3 antibody 1:4000 followed by rBSP 10 μg/mL, MTT), the “effect of pretreatment on protective effect of rBSP” value is reported as “negated the protective effect”. In addition, the “effect of pretreatment on protective effect of rOPN” value in assay [1] (MEL cells, MTT) was “reduced cell survival”. For the same substance, the “effect of preincubation on DMP1 protection” value in assay [1] (cells preincubated before DMP1) is recorded as “diminished but did not abolish”.
